# Reference: patent US20170298051A1, “ACTIVATOR OF ADIPONECTIN RECEPTOR” (THE UNIVERSITY OF TOKYO, priority 2013, published 2017)
# What was measured:
# [1] = tested on: HF diet-induced obese mice; experiment: Oral glucose tolerance test and insulin tolerance in HF diet-induced obese mice; format: in vivo; settings: mice, FIG. 7
# Description: The original Adipor1^+/−/Adipor2^+/− mice (C57BL/6 and 129/Sv mixed background)^a were backcrossed with C57B1/6 mice more than seven times. All experiments in this study were conducted on male littermates.
# Mice were 6-10 week of age at the time of the experiment. They were housed in cages and maintained on a 12 hr light-dark cycle.
# Plasma glucose levels were determined by using a glucose B-test (Wako Pure Chemical Industries). Plasma insulin was measured with an insulin immunoassay (Shibayagi). Plasma NEFAs (Wako Pure Chemical Industries) were assayed by enzymatic methods.
# The oral glucose tolerance test (OGTT) and insulin tolerance test (ITT) were conducted as previously described^a,b with slight modifications. The areas of the glucose and insulin curves were calculated by multiplying the cumulative mean height of the glucose values (1 mg/ml=1 cm) and insulin values (1 ng/ml=1 cm), respectively, by time (60 min=1 cm)^c,a. The insulin resistance index was calculated from the product of the areas of glucose and insulin×10^−2 in the glucose tolerance test. The results are expressed as the percentage of the value respect to control littermates.
# [2] = target: T1, AdipoR1 (Mus musculus, UniProt Q91VH1); experiment: Measurement of AMPK phosphorylation ability (Assay 1), differentiated C2C12 cells, Western blotting; format: cell-based; settings: 10 μM, 10 minutes
# T1 construct: C2C12 cells (ATCC; CRL-1772, medium; host or cells: differentiated C2C12
# T1 sequence (Q91VH1 1-375): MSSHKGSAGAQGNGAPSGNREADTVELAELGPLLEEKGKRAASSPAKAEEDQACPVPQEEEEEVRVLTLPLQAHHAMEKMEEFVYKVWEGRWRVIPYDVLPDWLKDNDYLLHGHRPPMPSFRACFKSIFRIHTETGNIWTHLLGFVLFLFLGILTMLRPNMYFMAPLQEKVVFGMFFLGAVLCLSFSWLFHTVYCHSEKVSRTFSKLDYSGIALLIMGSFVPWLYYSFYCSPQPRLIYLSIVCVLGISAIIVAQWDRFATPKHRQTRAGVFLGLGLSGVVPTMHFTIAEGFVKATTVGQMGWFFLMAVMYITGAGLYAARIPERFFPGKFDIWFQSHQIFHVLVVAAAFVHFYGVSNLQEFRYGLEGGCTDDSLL
# Description: The AMPK phosphorylation ability of the respective compounds according to the present invention was measured by using differentiated C2C12 cells or HEK 293T cells.
# C2C12 cells (ATCC; CRL-1772, medium; DMEM, 10% FBS) were cultured in a 12- or 24-well plate until they reached 100% confluency (37° C., 5% CO2).
# The medium was changed to 2.5% Horse Serum (HS) and differentiation was started. The medium (DMEM, 2.5% HS) was replaced every three days.
# After starvation, a test compound listed in Table 12 (concentration: 10 μM) was added thereto, and after 10 minutes, the medium was discarded and the plate was frozen with liquid nitrogen.
# To the 12- or 24-well cell plate which had been frozen was added 100 or 150 μL of Cell lysis buffer pH 7.4 (50 mM HEPES (pH 7.4), 2 mM sodium orthovanadate, 10 mM sodium pyrophosphate, 10 mM NaF, 2 mM EDTA, 2 mM EGTA, 0.1% (v/v) NP-40, 0.2 mM PMSF), and the cells were scraped off with a cell scraper, suspended and transferred into a micro centrifugal tube. And then, the cells were ultrasonically crushed (1 second×3 times) with a sonicator. Centrifugation was performed at 4° C. at 15,000 rpm for 15 minutes, and the supernatant was recovered into a new tube.
# To 100 μL of the supernatant was added 25 μL of 5× sample buffer (280 mM Tris-HCl (pH 6.9), 40% glycerol, 10% (3-mercaptoethanol, 13% SDS, a small amount of bromophenol blue) and mixed together. The rest of the supernatant was used for protein quantification, and the protein concentrations were uniformed by adding 1× sample buffer depending on the concentration of each sample.
# An electrophoresis chamber was filled with 1× SDS buffer (25 mM Tris-HCl, 250 mM glycine, 0.1% SDS), and the sample was applied to a well of polyacrylamide gel. Electrophoresis was performed until the bromophenol blue in the sample reached to the bottom of the gel.
# A filter paper was soaked in 1× Transfer buffer sufficiently, above which the PVDF membrane and the gel after electrophoresis were stacked in this order, and thereabove a filter paper which had been soaked in 1× Transfer buffer sufficiently was further stacked, from which an air was removed and the resultant was set in semi-dry type transfer apparatus and transferred (7V, 35 minutes).
# An unnecessary portion of the blotted membrane was cutoff, and the rest was immediately soaked in blocking buffer (5% skimmed milk in Rinse buffer), and shaken at room temperature at 40 rpm for 3 hours.
# After blocking, the membrane was transferred into Rinse buffer, and washed at room temperature for 10 minutes while shaking. The membrane was soaked in a primary antibody solution (AMPK alpha Antibody (Cell signaling; #2532) 1/1,000 in Rinse buffer, Phospho-AMPK alpha (Thr172) (40H9) antibody (Cell signaling; #2535) 1/1,000 in Rinse buffer), and shaken at 4° C. at 40 rpm overnight.
# The membrane was soaked in a secondary antibody solution (goat anti-rabbit IgG-HRP Antibody (Santa Cruz; sc-2030) 1/2,000 in Rinse buffer), and shaken at room temperature at 40 rpm for 1 hour.
# After the membrane was washed for 45 minutes in the same way as after the primary antibody reaction, the membrane was soaked in a chemiluminescent reaction solution (ECL Western Blotting Detection Reagents, GE Healthcare) for about 1 minute. An excess of the reaction solution was removed, and then the membranes were arranged on a transparent film and sandwiched with it, with which an X-ray film was exposed in a darkroom (for about several seconds to 60 seconds) to develop the film.
# The X-ray film was scanned to take the image, for which the band was measured by using the image analysis software “Image J” to determine the respective amounts of pAMPK and AMPK.
# [3] = tested on: AdipoR1; experiment: Measurement of AMPK phosphorylation ability (Assay 2), C2C12 cells with unrelated or AdipoR1 siRNA; format: cell-based, Mouse
# Description: C2C12 cells (ATCC; CRL-1772, medium; DMEM, 10% Fetal Bovine Serum (FBS)) were cultured in a 12- or 24-well plate until they reached 100% confluency (37° C., 5% CO2). The medium was changed to DMEM, 2.5% Horse Serum (HS) and differentiation was started. The medium (DMEM, 2.5% HS) was replaced two days after the start of differentiation. The medium (DMEM, 2.5% HS) was further replaced two days after that.
# On the next day following the replacement of the medium, first, 1 μL of Lipofectamine RNAiMAX and 50 μL of OPTI-MEM were mixed, and then 5 μM siRNA (sense siRNA sequence: […]tt (SEQ ID NO: 1)) and 50 μL of OPTI-MEM were mixed and the resultants were left to stand at room temperature for 5 minutes. And then, the 1 μL Lipofectamine RNAiMAX/50 μL OPTI-MEM and the 5 μM siRNA/50 μL OPTI-MEM were mixed, and the resultant was left to stand at room temperature for 10 minutes, which was added to the cells.
# After 5 minutes, the medium (DMEM, 2.5 HS) was replaced, and after starvation on the next day, a test compound listed in Table 12 was added thereto. After 10 minutes, the medium was discarded and the plate was frozen with liquid nitrogen.
# The respective amounts of pAMPK and AMPK were determined in the same way as in the above Assay 1.
Compound,pAMPK/AMPK (%) [2],glucose intolerance and insulin resistance [1],"pAMPK/AMPK (ratio) siRNA, AdipoR1 siRNA [3]","pAMPK/AMPK (ratio) siRNA, unrelated siRNA [3]"
"COc1ccc(CN2CCN(C(=O)CCNC(=O)c3ccc(C(C)(C)C)cc3)CC2)cc1 [Compound 74, 4-tert-butyl-N-(3-{4-[(4-methoxyphenyl)methyl]piperazin-1-yl}-3-oxopropyl) benzamide]",86.43%,could improve glucose intolerance as well as insulin resistance,2.07 ratio,3.70 ratio
O=C(NCc1ccncc1)c1ccc(OC2CCN(Cc3ccoc3)CC2)cc1 [No. 196462],82.72%,–,2.58 ratio,2.06 ratio
COCCNC(=O)c1ccc(OC2CCN(Cc3ccc(C)s3)CC2)c(Cl)c1 [No. 197372],85.37%,–,1.96 ratio,1.78 ratio
CC(C)N(Cc1cnn(C)c1)C(=O)c1ccc(OC2CCN(Cc3ccccn3)CC2)cc1 [No. 206685],90.15%,–,2.39 ratio,1.76 ratio
CCOc1cccc(CN2CCC(Oc3ccc(C(=O)NCCOC)cc3Cl)CC2)c1 [No. 214617],91.97%,–,2.78 ratio,2.21 ratio
O=C(NCCc1ccc(Cl)cc1)c1ccc(OC2CCN(Cc3ccccn3)CC2)cc1 [No. 264785],80.62%,–,3.58 ratio,3.70 ratio
COc1ccccc1CN1CCC(Oc2ccc(C(=O)NC3CCCC3)cc2Cl)CC1 [No. 272299],91.22%,–,2.60 ratio,2.83 ratio
CCc1ccc(CN2CCC(Oc3ccc(C(=O)NCCOC)cc3Cl)CC2)cc1 [No. 466151],89.26%,–,1.94 ratio,2.22 ratio
COCCNC(=O)c1ccc(OC2CCN(Cc3cc4ccccc4o3)CC2)c(Cl)c1 [No. 473771],85.03%,–,2.39 ratio,1.67 ratio
O=C(NC1CCN(Cc2ccccc2)CC1)c1ccc(Cl)c(Cl)c1 [No. 550212],80.04%,–,2.14 ratio,1.91 ratio

# More lines, main results first:
pAMPK/AMPK (%) [2],Compound,glucose intolerance and insulin resistance [1],"pAMPK/AMPK (ratio) siRNA, AdipoR1 siRNA [3]","pAMPK/AMPK (ratio) siRNA, unrelated siRNA [3]"
89.63%,COCCNC(=O)c1ccc(OC2CCN(Cc3ccc(OC)cc3F)CC2)c(Cl)c1 [No. 197248],–,2.55 ratio,2.09 ratio
87.39%,Cc1ccccc1CN1CCC(Oc2ccc(C(=O)NCc3ccccn3)cc2)CC1 [No. 198637],–,2.51 ratio,2.24 ratio
83.71%,CC(C)(C)CN1CCC(Oc2ccc(C(=O)NCCc3ccncc3)cc2Cl)CC1 [No. 200737],–,2.68 ratio,2.13 ratio
81.28%,CCOCCCNC(=O)c1ccc(OC2CCN(CC(C)(C)C)CC2)c(Cl)c1 [No. 209705],–,1.81 ratio,1.52 ratio
93.79%,COCCNC(=O)c1ccc(OC2CCN([C@@H](C)COc3ccccc3)CC2)c(Cl)c1 [No. 211156],–,2.59 ratio,2.36 ratio
83.18%,O=C(NC1CCCC1)c1ccc(OC2CCN(Cc3cccc(O)c3)CC2)c(Cl)c1 [No. 251327],–,3.15 ratio,2.85 ratio
81.90%,O=C(NCC[C@@H]1C[C@@H]2C=C[C@H]1C2)c1ccc(OC2CCN(Cc3ccccn3)CC2)cc1 [No. 260544],–,4.12 ratio,3.79 ratio
80.12%,O=C(NC1CCCC1)c1ccc(OC2CCN(Cc3ccoc3)CC2)c(Cl)c1 [No. 268508],–,2.87 ratio,2.58 ratio
86.36%,C#CCN(Cc1ccco1)C(=O)c1ccc(OC2CCN(Cc3ccccn3)CC2)cc1 [No. 268949],–,2.82 ratio,3.10 ratio
84.20%,CC#CCN(Cc1ccco1)C(=O)c1ccc(OC2CCN(Cc3ccccn3)CC2)cc1 [No. 272350],–,2.54 ratio,2.03 ratio
81.64%,COCCNC(=O)c1ccc(OC2CCN(Cc3cc(OC)ccc3F)CC2)c(Cl)c1 [No. 274971],–,2.51 ratio,2.38 ratio
81.88%,COCCNC(=O)c1ccc(OC2CCN(Cc3cccc4nonc34)CC2)c(Cl)c1 [No. 484140],–,2.30 ratio,2.34 ratio
90.14%,Cc1cccc(CN2CCC(Oc3ccc(C(=O)NC4CCCC4)cc3Cl)CC2)n1 [No. 492284],–,1.88 ratio,2.05 ratio
